Measurements taken from patent US20240246908A1 (ORION CORPORATION, priority 2021, published 2024).

The compounds below were run on YAP-TEAD (assay: TEAD inhibition, Hippo Pathway TEAD Reporter MCF-7 luciferase assay). Details: Homo sapiens, MCF7, 24 h, Hippo Pathway TEAD Reporter MCF-7 cells, luciferase activity after 24 h; read-out: IC50 of the test compounds on YAP-TEAD inhibition (Group).
Format: cell-based
Summary of the method: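 IC50 derived from ONE-Glo luciferase luminescence after 24 h compound exposure (11 concentrations in quadruplicate, 0.1% DMSO control). Reporter: MCF-7 line expressing firefly luciferase under TEAD elements, constitutively activated by nuclear YAP1.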

Row | SMILES | IC50 [nM]
1 | COc1ccc(Oc2ccc(C(F)(F)F)cn2)cc1NC(=O)C1CNC(=O)C1 (stereo not drawn) [Compound 344, N-(2-Methoxy-5-((5-(trifluoromethyl)pyridin-2-yl)oxy)phenyl)-5-oxopyrrolidine-3-carboxamide carboxamide] | 301 to 2000
2 | COCC(=O)N1CCC[C@@H]1C(=O)Nc1cc(Oc2ccc(C(F)(F)F)cc2)ccc1OC [Compound 347, (R)—N-(2-Methoxy-5-(4-(trifluoromethyl)phenoxy)phenyl)-1-(2-methoxyacetyl)-pyrrolidine-2-carboxamide] | 301 to 2000
3 | COc1ccc(Oc2ccc(CF)cc2)cc1NC(=O)[C@@H]1CNC(=O)N1C [Compound 353, (S)—N-(5-(4-(Fluoromethyl)phenoxy)-2-methoxyphenyl)-3-methyl-2-oxoimidazolidine-4-carboxamide] | 301 to 2000
4 | COC(=O)CN1C(=O)CCC1C(=O)Nc1cc(Oc2ccc(C(F)(F)F)cc2)ccc1OC (stereo not drawn) [Compound 354, Methyl 2-(2-((2-methoxy-5-(4-(trifluoromethyl)phenoxy)phenyl)carbamoyl)-5-oxopyrrolidin-1-yl)acetate] | 301 to 2000
5 | COc1ccc(Oc2ncc(C(F)(F)F)cc2F)cc1NC(=O)[C@@H]1CCCN1C(C)=O [Compound 358, (S)-1-Acetyl-N-(5-((3-fluoro-5-(trifluoromethyl)pyridin-2-yl)oxy)-2-methoxyphenyl)pyrrolidine-2-carboxamide] | 301 to 2000
6 | COc1ccc(Oc2ncc(C(F)(F)F)cc2F)cc1NC(=O)[C@@H]1CN(C)C(=O)N1C [Compound 359, (S)—N-(5-((3-Fluoro-5-(trifluoromethyl)pyridin-2-yl)oxy)-2-methoxyphenyl)-1,3-dimethyl-2-oxoimidazolidine-4-carboxamide] | 50 to 300
7 | CN1C[C@@H](C(=O)Nc2cc(Oc3ccc(C(F)(F)F)cn3)cc3c2OCO3)N(C)C1=O [Compound 360, (S)-1,3-Dimethyl-2-oxo-N-(6-((5-(trifluoromethyl)pyridin-2-yl)oxy)benzo[d]-[1,3]dioxol-4-yl)imidazolidine-4-carboxamide] | 50 to 300
8 | CN1C[C@@H](C(=O)Nc2cc(Oc3ccc(C(F)(F)F)cn3)cc3c2OCC3)N(C)C1=O [Compound 364, (S)-1,3-Dimethyl-2-oxo-N-(5-((5-(trifluoromethyl)pyridin-2-yl)oxy)-2,3-dihydrobenzofuran-7-yl)imidazolidine-4-carboxamide] | 50 to 300
9 | CN1C(=O)CCC1C(=O)Nc1cc(Oc2cccc(C(F)(F)F)c2)ccc1Br (stereo not drawn) [Compound 366, N-(2-Bromo-5-(3-(trifluoromethyl)phenoxy)phenyl)-1-methyl-5-oxopyrrolidine-2-carboxamide] | 301 to 2000
10 | CN1C(=O)CCC1C(=O)Nc1cc(Oc2ccc(C(F)(F)F)cc2)ccc1C#N (stereo not drawn) [Compound 367, N-(2-Cyano-5-(4-(trifluoromethyl)phenoxy)phenyl)-1-methyl-5-oxopyrrolidine-2-carboxamide] | 301 to 2000
11 | CN1C(=O)CCC1C(=O)Nc1cc(Oc2ccc(C(F)(F)F)cn2)ccc1F (stereo not drawn) [Compound 368, N-(2-Fluoro-5-((5-(trifluoromethyl)pyridin-2-yl)oxy)phenyl)-1-methyl-5-oxopyrrolidine-2-carboxamide] | 50 to 300
12 | COc1ccc(Oc2ccc(C(F)(F)F)cc2)cc1NC(=O)[C@@H]1C[C@@H](O)CN1 [Compound 370, (2S,4R)-4-Hydroxy-N-(2-methoxy-5-(4-(trifluoromethyl)phenoxy)phenyl)pyrrolidine-2-carboxamide] | 301 to 2000
13 | COc1ccc(Oc2ccc(C(F)(F)F)cc2)cc1NC(=O)[C@@H]1CCC(=O)N1C(C)=O [Compound 371, (S)-1-Acetyl-N-(2-methoxy-5-(4-(trifluoromethyl)phenoxy)-phenyl)-5-oxopyrrolidine-2-carboxamide] | 50 to 300
14 | CN1C(=O)CCC1C(=O)Nc1cc(Oc2ccc(C(F)(F)F)cc2)ccc1O (stereo not drawn) [Compound 372, N-(2-Hydroxy-5-(4-(trifluoromethyl)phenoxy)phenyl)-1-methyl-5-oxopyrrolidine-2-carboxamide] | 301 to 2000
15 | CN1C(=O)NC[C@H]1C(=O)Nc1cc(Oc2ccc(C(F)(F)F)cn2)ccc1O [Compound 373, (S)—N-(2-Hydroxy-5-((5-(trifluoromethyl)pyridin-2-yl)oxy)phenyl)-3-methyl-2-oxoimidazolidine-4-carboxamide] | 301 to 2000
16 | COc1ccc(Oc2ccc(C(F)(F)F)cc2)cc1NC(=O)C1CNCC(=O)N1C (stereo not drawn) [Compound 374, N-(2-Methoxy-5-(4-(trifluoromethyl)phenoxy)phenyl)-1-methyl-6-oxopiperazine-2-carboxamide] | 301 to 2000
17 | CN1C(=O)CNCC1C(=O)Nc1cc(Oc2ccc(C(F)(F)F)cc2)cc2c1OCC2 (stereo not drawn) [Compound 376, 1-Methyl-6-oxo-N-(5-(4-(trifluoromethyl)phenoxy)-2,3-dihydro-benzofuran-7-yl)piperazine-2-carboxamide] | 50 to 300
18 | COc1ccc(Oc2ccc(C(F)(F)F)cc2)cc1NC(=O)C1CCC(=O)N1CCC(N)=O (stereo not drawn) [Compound 379, 1-(3-Amino-3-oxopropyl)-N-(2-methoxy-5-(4-(trifluoromethyl)-phenoxy)phenyl)-5-oxopyrrolidine-2-carboxamide] | 50 to 300
19 | COc1ccc(Oc2ccc(C(F)(F)F)cc2)cc1NC(=O)[C@@H]1C[C@H](O)C(=O)N1C [Compound 380, (2S,4S)-4-Hydroxy-N-(2-methoxy-5-(4-(trifluoromethyl)phenoxy)phenyl)-1-methyl-5-oxopyrrolidine-2-carboxamide] | 50 to 300
20 | COc1ccc(Oc2ccc(C(F)(F)F)cc2)cc1NC(=O)C1CCS(=N)(=O)CC1 (stereo not drawn) [Compound 381, 1-Imino-N-(2-methoxy-5-(4-(trifluoromethyl)phenoxy)phenyl)-hexahydro-1λ^6-thiopyran-4-carboxamide 1-oxide] | 50 to 300

The remaining lines, values ahead:

Row | IC50 [nM] | SMILES
21 | < 50 | COc1ccc(Oc2ncc(C(F)(F)F)cc2Cl)cc1NC(=O)[C@@H]1CNC(=O)N1C [Compound 345, (S)—N-(5-((3-Chloro-5-(trifluoromethyl)pyridin-2-yl)oxy)-2-methoxyphenyl)-3-methyl-2-oxoimidazolidine-4-carboxamide]
22 | 50 to 300 | COc1ccc(Oc2ccc(C(F)(F)F)cn2)cc1NC(=O)[C@@H]1CN(C)C(=O)N1C [Compound 346, (S)—N-(2-Methoxy-5-((5-(trifluoromethyl)pyridin-2-yl)oxy)phenyl)-1,3-dimethyl-2-oxoimidazolidine-4-carboxamide]
23 | < 50 | COc1ccc(Oc2cccc(Cl)c2)cc1NC(=O)[C@@H]1CNC(=O)N1C [Compound 348, (S)—N-(5-(3-Chlorophenoxy)-2-methoxyphenyl)-3-methyl-2-oxoimidazolidine-4-carboxamide]
24 | < 50 | COc1ccc(Oc2ccc(C(F)(F)F)cc2)cc1NC(=O)C1CC(=O)N(C)C1 (stereo not drawn) [Compound 349, N-(2-Methoxy-5-(4-(trifluoromethyl)phenoxy)phenyl)-1-methyl-5-oxo-pyrrolidine-3-carboxamide]
25 | 50 to 300 | COc1ccc(Oc2ccc(C(F)(F)F)cc2Cl)cc1NC(=O)C1CCC(=O)N1 (stereo not drawn) [Compound 350, N-(5-(2-Chloro-4-(trifluoromethyl)phenoxy)-2-methoxyphenyl)-5-oxopyrrolidi-ne-2-carboxamide]
26 | < 50 | CN1C(=O)NC[C@H]1C(=O)Nc1cc(Cl)cc(Oc2ccc(C(F)(F)F)cn2)c1 [Compound 351, (S)—N-(3-Chloro-5-((5-(trifluoromethyl)pyridin-2-yl)oxy)phenyl)-3-methyl-2-oxoimidazolidine-4-carboxamide]
27 | < 50 | CN1C(=O)CCC1C(=O)Nc1cc(Cl)cc(Oc2ccc(C(F)(F)F)cn2)c1 (stereo not drawn) [Compound 352, N-(3-Chloro-5-((5-(trifluoromethyl)pyridin-2-yl)oxy)phenyl)-1-methyl-5-oxopyrrolidine-2-carboxamide]
28 | < 50 | COc1ccc(Oc2ccc(C(F)(F)F)cc2)cc1NC(=O)[C@@H]1CNC(=O)C1 [Compound 355, (S)—N-(2-Methoxy-5-(4-(trifluoromethyl)phenoxy)phenyl)-5-oxopyrrolidine-3-carboxamide]
29 | < 50 | COc1ccc(Oc2ccc(Cl)cc2)cc1NC(=O)[C@@H]1CNC(=O)N1C [Compound 356, (S)—N-(5-(4-Chlorophenoxy)-2-methoxyphenyl)-3-methyl-2-oxoimidazolidine-4-carboxamide]
30 | 50 to 300 | COc1ccc(Oc2ccc(C(F)(F)F)cc2)cc1NC(=O)[C@H]1CNC(=O)C1 [Compound 357, (R)—N-(2-Methoxy-5-(4-(trifluoromethyl)phenoxy)phenyl)-5-oxopyrrolidine-3-carboxamide]
31 | < 50 | CN1C(=O)NC[C@H]1C(=O)Nc1cc(Oc2ccc(C(F)(F)F)cn2)c(F)cc1F [Compound 361, (S)—N-(2,4-Difluoro-5-((5-(trifluoromethyl)pyridin-2-yl)oxy)phenyl)-3-methyl-2-oxoimidazolidine-4-carboxamide]
32 | < 50 | CN1C(=O)NC[C@H]1C(=O)Nc1cc(F)cc(Oc2ccc(C(F)(F)F)cn2)c1 [Compound 362, (S)—N-(3-Fluoro-5-((5-(trifluoromethyl)pyridin-2-yl)oxy)phenyl)-3-methyl-2-oxoimidazolidine-4-carboxamide]
33 | < 50 | CN1C(=O)CC[C@H]1C(=O)Nc1cc(Oc2ccc(C(F)(F)F)cc2)ccc1F [Compound 363, (S)—N-(2-Fluoro-5-(4-(trifluoromethyl)phenoxy)phenyl)-1-methyl-5-oxo-pyrrolidine-2-carboxamide]
34 | < 50 | CN1C(=O)NC[C@H]1C(=O)Nc1cc(Oc2ccc(C(F)(F)F)cc2)ccc1F [Compound 365, (S)—N-(2-Fluoro-5-(4-(trifluoromethyl)phenoxy)phenyl)-3-methyl-2-oxo-imidazolidine-4-carboxamide]
35 | < 50 | CNC(CCC(=O)O)C(=O)Nc1cc(Oc2ccc(C(F)(F)F)cc2)ccc1OC (stereo not drawn) [Compound 375]
36 | < 50 | COc1cc(F)c(Oc2ccc(C(F)(F)F)cc2)cc1NC(=O)C1CNC(=O)N1C (stereo not drawn) [Compound 382, N-(4-Fluoro-2-methoxy-5-(4-(trifluoromethyl)phenoxy)phenyl)-3-methyl-2-oxoimidazolidine-4-carboxamide]
